Measured values taken from article PMC4864240, “Biotype Characterization, Developmental Profiling, Insecticide Response and Binding Property of Bemisia tabaci Chemosensory Proteins: Role of CSP in Insect Defense” (PLoS ONE, 2016).

Legend:
[1] = system: B. tabaci B-biotype adults; experiment: Thiamethoxam cotton leaf-dip exposure, gene expression by qRT-PCR, biotype B; type: in vivo, Bemisia tabaci
Method: (§1) One-step Reverse transcriptase PCR (TAKARA Bio. Inc) was used to check for tissue-distribution of CSP1 following the method described in Liu et al.. qRT-PCR was used to measure the changes of CSP1, CSP2 and CSP3 gene expression during development and over insecticide exposure. In a typical qRT-PCR experiment, cDNA templates (20 ng/μl) were used in a total volume of 20 μl containing SYBR Green I PCR Master Mix (Roche) and 200 nM of each primer, using 96-well optical-grade PCR plates and matched optical-grade membrane of StepOne Plus ABI system. qPCR primers were specifically designed to generate an amplicon of about 100–150 bps:
(§2) qRT-PCR products were sequenced to attest primer specificity. Each sample in B and Q was analyzed in triplicates. Three biological samples were used for each time point at each developmental stage and in the experiments on the effects of insecticide on the expression of CSP genes (see below). Reactions were run in a StepOne Plus system with initial denaturing step consisting of 2 min at 50°C and 10 min at 95°C, followed by 40 cycles of 15 s at 95°C-30 s at 60°C and terminated by a dissociation curve program from 60 to 95°C with a heating rate of 0.1°C and a continuous fluorescence acquisition. Expression levels were determined using the relative 2(-Delta Delta C(T)) method. Data were statistically analyzed by one-way Anova in SPSS.
(§3) Thiamethoxam is one major neonicotinoid insecticide, known to act on the nicotinic acetylcholine receptors (nAChR) within the insect central nervous system. To expose B. tabaci to the neonicotinoid insecticide thiamethoxam (25% WG, Syngenta, China), we chose the cotton leaf-dip method. One week<-old adult forms from the laboratory colonies of B- and Q-biotypes of B. tabaci were collected separately and exposed in the laboratory conditions (26°C temperature, 60% humidity, 16/8 h day/night) to 0, 6.25, 12.5, 25 and 50 μg/ml of thiamethoxam, respectively. Significant mortality rate was observed only for higher doses […] at different exposure time.
(§4) The experiment started (time 0) when insecticide treated and non-treated plant discs (2.5 cm diameter) were individually placed on agar base in 20-ml glass vials.Twenty-eight whiteflies belonging either to B or Q-biotype were aspirated into each vial. Vials were capped with an absorbent cotton stopper and inverted. Insecticide-treated whiteflies fed in treated vials on cotton plant leaf discs dipped for 10 s in formulated thiamethoxam diluted with distilled water. Whiteflies kept in vials containing cotton plant leaf discs of the same diameter dipped for 10 s in distilled water only were used as controls (0 μg/ml of thiamethoxam). […]

[2] = system: B- and Q-biotypes of B. tabaci; experiment: Thiamethoxam cotton leaf-dip exposure, mortality; type: in vivo, Bemisia tabaci
Method: as §3, §4

[3] = system: B. tabaci Q-biotype adults; experiment: Thiamethoxam cotton leaf-dip exposure, gene expression by qRT-PCR, biotype Q; type: in vivo, Bemisia tabaci
Method: as §1, §2, §3
The experiment started (time 0) when insecticide treated and non-treated plant discs (2.5 cm diameter) were individually placed on agar base in 20-ml glass vials.Twenty-eight whiteflies belonging either to B or Q-biotype were aspirated into each vial. Vials were capped with an absorbent cotton stopper and inverted. Insecticide-treated whiteflies fed in treated vials on cotton plant leaf discs dipped for 10 s in formulated thiamethoxam diluted with distilled water. Whiteflies kept in vials containing cotton plant leaf discs of the same diameter dipped for 10 s in distilled water only were used as controls (0 μg/ml of thiamethoxam). After 1, 4, 24, 48 and 72 h post-exposure, all individuals in each category were collected in an eppendorf tube in treated and untreated groups of whiteflies in each of the two biotypes, kept on ice for 10 min and freeze-dried in nitrogen before storage at -70°C.

[4] = target: T1, BtabCSP1 (Bemisia tabaci, UniProt D6N3A3); experiment: biochemical; type: binding
T1 sequence (D6N3A3 20-126): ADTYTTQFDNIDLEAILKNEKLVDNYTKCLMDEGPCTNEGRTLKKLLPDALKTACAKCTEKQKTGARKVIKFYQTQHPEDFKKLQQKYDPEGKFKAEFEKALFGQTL
Method: Protein-ligand binding affinity was determined for the three recombinant proteins. Emission fluorescence spectra were recorded on a Jasco FP-6500 Series fluorescence spectrofluorometer. […] Fluorescence was measured using an exciting wavelength of 337 nm. Emission spectrum was recorded between 350 and 500 nm.

SMILES: CN1COCN(Cc2cnc(Cl)s2)/C1=N\[N+](=O)[O-] [Thiamethoxam]
- CSP1 expression, time/dose effect ([1]; 1-72 h, 0-50 μg/ml): did not observe such a time/dose effect
- CSP2 and CSP3 expression ([1]; 1-72 h, 0-50 μg/ml): no time/dose effect
- CSP1 gene expression ([1]; 1 and 4 h, all five doses): no changes
- CYP6CX1 expression ([1]; sublethal dose): reduced
- mortality ([2]; 100 μg/ml, 72 h exposure): killed most of the whiteflies
- doses with significant mortality rate ([2]; different exposure time): > 100 µg/mL
- CSP2 and CSP3 expression ([3]; 1-72 h, 0-50 μg/ml): no time/dose effect
- CSP1 gene expression ([3]; 1 and 4 h, all five doses): no changes
- CSP1 gene expression ([3]; 24 h, gradual concentrations): gradual increase
- CSP1 gene expression ([3]; 48 h): No effects
- increase in CSP1 gene expression (factor) ([3]; 72 h exposure, 12.5 and 50 μg/ml): 10–25
- CYP6CM1 expression ([3]; sublethal dose): increased
- CSP1 expression up-regulated ([3]; sublethal doses, 24 and 72 h): 10–20 fold
- IC50 [4]: > 50 µM
